# PubChem BioAssay (NCI)
#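 In this assay, cells in 96-well plates receive the compound at five concentrations for 48 hours. Endpoints are linearly interpolated between the surrounding concentrations. TGI denotes the concentration required for complete inhibition of growth.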
# How the values were obtained:
# Experiment in all cases: NCI tumour cell line growth inhibition, 48 h
# [1] = tested on: A498 renal
# [2] = tested on: ACHN renal
# [3] = tested on: CAKI-1 renal
# [4] = tested on: HL-60(TB) leukemia
# [5] = tested on: HOP-62 NSCLC
# [6] = tested on: HOP-92 NSCLC
# [7] = tested on: IGROV1 ovarian
# [8] = tested on: KM20L2 colon
# [9] = tested on: MOLT-4 leukemia
# [10] = tested on: OVCAR-5 ovarian
# [11] = tested on: RPMI-8226 leukemia
# [12] = tested on: SK-MEL-2 melanoma
# [13] = tested on: SK-OV-3 ovarian
# [14] = tested on: SR leukemia
# [15] = tested on: TK-10 renal
# [16] = tested on: UO-31 renal
# [17] = tested on: 786-0 renal
# [18] = tested on: A549 NSCLC
# [19] = tested on: BT-549 breast
# [20] = tested on: CCRF-CEM leukemia
# [21] = tested on: COLO 205 colon
# [22] = tested on: DU-145 prostate
# [23] = tested on: EKVX NSCLC
# [24] = tested on: HCC-2998 colon
# [25] = tested on: HCT-116 colon
# [26] = tested on: HCT-15 colon
# [27] = tested on: HS 578T breast
# [28] = tested on: HT29 colon
# [29] = tested on: KM12 colon
# [30] = tested on: LOX IMVI melanoma
# [31] = tested on: M14 melanoma
# [32] = tested on: MALME-3M melanoma
# [33] = tested on: MCF7 breast
# [34] = tested on: MDA-MB-231 breast
# [35] = tested on: MDA-MB-435
# [36] = tested on: MDA-N
# [37] = tested on: NCI-H226 lung
# [38] = tested on: NCI-H23 lung
# [39] = tested on: NCI-H460 lung
# [40] = tested on: NCI-H522 lung
# [41] = tested on: NCI/ADR-RES ovarian
# [42] = tested on: OVCAR-3 ovarian
# [43] = tested on: OVCAR-4 ovarian
# [44] = tested on: OVCAR-8 ovarian
# [45] = tested on: PC-3 prostate
# [46] = tested on: SF-268 CNS
# [47] = tested on: SF-295 CNS
# [48] = tested on: SF-539 CNS
# [49] = tested on: SK-MEL-28 melanoma
# [50] = tested on: SK-MEL-5 melanoma
# [51] = tested on: SN12C renal
# [52] = tested on: SNB-19 CNS
# [53] = tested on: SNB-75 CNS
# [54] = tested on: SW-620 colon
# [55] = tested on: T-47D breast
# [56] = tested on: U251 CNS
# [57] = tested on: UACC-257 melanoma
# [58] = tested on: UACC-62 melanoma
# [59] = tested on: K-562 leukemia
# [60] = tested on: RXF 393 renal
compound,measurement,setting,value
CCCCCC(=O)OC[n+]1ccc2c(C)c3[nH]c4ccccc4c3c(C)c2c1,TGI,[1],2.67 µM
same,TGI,[2],11.1 µM
same,TGI,[3],7.75 µM
same,TGI,[4],> 100 µM
same,TGI,[5],4.14 µM
same,TGI,[6],> 100 µM
same,TGI,[7],38.6 µM
same,TGI,[8],2.75 µM
same,TGI,[9],8.26 µM
same,TGI,[10],2.75 µM
same,TGI,[11],1.78 µM
same,TGI,[12],29.8 µM
same,TGI,[13],5.13 µM
same,TGI,[14],12 µM
same,TGI,[15],15.4 µM
same,TGI,[16],13 µM
COc1cc(C=Nc2ccc(Oc3ccc(Cl)cc3)c(Cl)c2)cc(OC)c1OC,TGI,[17],29.6 µM
same,TGI,[18],44.7 µM
same,TGI,[2],83.8 µM
same,TGI,[19],38 µM
same,TGI,[3],72 µM
same,TGI,[20],66.4 µM
same,TGI,[21],34 µM
same,TGI,[22],38.6 µM
same,TGI,[23],48.1 µM
same,TGI,[24],40.3 µM
same,TGI,[25],29.2 µM
same,TGI,[26],39.2 µM
same,TGI,[4],48.6 µM
same,TGI,[5],49 µM
same,TGI,[6],39.4 µM
same,TGI,[27],41.6 µM
same,TGI,[28],44 µM
same,TGI,[7],67.1 µM
same,TGI,[29],38.1 µM
same,TGI,[30],32.2 µM
same,TGI,[31],58.2 µM
same,TGI,[32],35.8 µM
same,TGI,[33],95.5 µM
same,TGI,[34],35 µM
same,TGI,[35],> 100 µM
same,TGI,[36],51.3 µM
same,TGI,[9],76 µM
same,TGI,[37],80.9 µM
same,TGI,[38],42 µM
same,TGI,[39],39.9 µM
same,TGI,[40],28.1 µM
same,TGI,[41],48.8 µM
same,TGI,[42],48.4 µM
same,TGI,[43],62.3 µM
same,TGI,[10],> 100 µM
same,TGI,[44],62.1 µM
same,TGI,[45],36.2 µM
same,TGI,[11],> 100 µM
same,TGI,[46],30.5 µM
same,TGI,[47],37.3 µM
same,TGI,[48],35.2 µM
same,TGI,[12],45.9 µM
same,TGI,[49],53.8 µM
same,TGI,[50],34.9 µM
same,TGI,[51],40.3 µM
same,TGI,[52],49.1 µM
same,TGI,[53],57.9 µM
same,TGI,[14],54.1 µM
same,TGI,[54],> 100 µM
same,TGI,[55],39.7 µM
same,TGI,[15],> 100 µM
same,TGI,[56],40.8 µM
same,TGI,[57],47.7 µM
same,TGI,[58],30.4 µM
same,TGI,[16],23.2 µM
Fc1ccccc1N=c1oc2ccc(Br)cc2cc1-c1nc2ccccc2[nH]1,TGI,[17],8.5 µM
same,TGI,[1],9.69 µM
same,TGI,[18],23.1 µM
same,TGI,[2],29.8 µM
same,TGI,[19],26.7 µM
same,TGI,[3],35.8 µM
same,TGI,[20],> 100 µM
same,TGI,[21],> 100 µM
same,TGI,[22],> 42.5 µM
same,TGI,[23],> 41.5 µM
same,TGI,[24],> 35.2 µM
same,TGI,[25],> 31.8 µM
same,TGI,[26],> 100 µM
same,TGI,[4],> 100 µM
same,TGI,[5],28.1 µM
same,TGI,[6],83.8 µM
same,TGI,[27],13.4 µM
same,TGI,[28],> 54.8 µM
same,TGI,[7],> 42.1 µM
same,TGI,[59],> 100 µM
same,TGI,[29],> 54.9 µM
same,TGI,[30],> 31.2 µM
same,TGI,[31],35.8 µM
same,TGI,[32],14.9 µM
same,TGI,[33],> 100 µM
same,TGI,[34],25.8 µM
same,TGI,[35],> 64.6 µM
same,TGI,[36],> 42.6 µM
same,TGI,[9],> 100 µM
same,TGI,[37],17.6 µM
same,TGI,[38],29.8 µM
same,TGI,[39],> 76.6 µM
same,TGI,[40],6.82 µM
same,TGI,[41],65.7 µM
same,TGI,[43],> 37.3 µM
same,TGI,[10],> 62.8 µM
same,TGI,[44],> 36.5 µM
same,TGI,[45],> 23.4 µM
same,TGI,[11],> 85.6 µM
same,TGI,[60],21.8 µM
same,TGI,[46],21 µM
same,TGI,[47],23.2 µM
same,TGI,[48],4.58 µM
same,TGI,[12],26.6 µM
same,TGI,[49],> 76.2 µM
same,TGI,[50],35.7 µM
same,TGI,[13],32.9 µM
same,TGI,[51],> 41.1 µM
same,TGI,[52],21.9 µM
same,TGI,[53],4.74 µM
same,TGI,[14],> 100 µM
same,TGI,[54],> 100 µM
same,TGI,[55],> 100 µM
same,TGI,[15],17.2 µM
same,TGI,[56],20.1 µM
same,TGI,[57],> 47.5 µM
same,TGI,[58],51.5 µM
same,TGI,[16],20.5 µM
O=C1C2=C(Nc3cc([N+](=O)[O-])ccc3N2)OC1c1c[nH]c2ccc(COc3ccccc3)cc12 (configuration not stated),TGI,[17],> 100 µM
same,TGI,[1],> 100 µM
same,TGI,[18],> 100 µM
same,TGI,[2],> 100 µM
same,TGI,[19],> 100 µM
same,TGI,[3],> 100 µM
same,TGI,[21],55.8 µM
same,TGI,[22],> 100 µM
same,TGI,[23],> 100 µM
same,TGI,[24],> 100 µM
same,TGI,[25],> 100 µM
same,TGI,[26],> 100 µM
same,TGI,[4],17.7 µM
same,TGI,[5],> 100 µM
same,TGI,[6],> 100 µM
same,TGI,[27],> 100 µM
same,TGI,[28],> 100 µM
same,TGI,[7],> 100 µM
same,TGI,[59],> 100 µM
same,TGI,[29],> 100 µM
same,TGI,[30],> 100 µM
same,TGI,[31],> 100 µM
same,TGI,[32],> 100 µM
same,TGI,[33],> 100 µM
same,TGI,[34],> 100 µM
same,TGI,[35],> 100 µM
same,TGI,[36],> 100 µM
same,TGI,[9],40.4 µM
same,TGI,[37],> 100 µM
same,TGI,[38],> 100 µM
same,TGI,[39],> 100 µM
same,TGI,[40],> 100 µM
same,TGI,[41],> 100 µM
same,TGI,[42],> 100 µM
same,TGI,[43],> 100 µM
same,TGI,[10],> 100 µM
same,TGI,[44],> 100 µM
same,TGI,[45],> 100 µM
same,TGI,[11],> 100 µM
same,TGI,[60],> 100 µM
same,TGI,[46],> 100 µM
same,TGI,[47],> 100 µM
same,TGI,[48],> 100 µM
same,TGI,[12],> 100 µM
same,TGI,[49],> 100 µM
same,TGI,[50],> 100 µM
same,TGI,[13],> 100 µM
same,TGI,[51],> 100 µM
same,TGI,[52],> 100 µM
same,TGI,[53],65.9 µM
same,TGI,[14],> 100 µM
same,TGI,[54],> 100 µM
same,TGI,[55],> 100 µM
same,TGI,[15],> 100 µM
same,TGI,[56],> 100 µM
same,TGI,[57],> 100 µM
same,TGI,[58],> 100 µM
same,TGI,[16],> 100 µM
